Laboratory results from US8609636B2, “Oxime derivatives as sphingosine 1-phosphate (S1P) receptor modulators” (Allergan, Inc., priority 2010, dated 2013).
pEC50: −log10 of the molar value.

Target: T1, human S1P1 receptor (Homo sapiens, UniProt P21453)
T1 construct: expressed in transfected cells; membranes used
Experiment: GTP γ35S binding assay for S1P1 activity
Type: biochemical
Conditions: activity potency, S1P1 receptor from GTP γ35S binding; membranes, test range 0.08 to 5,000 nM
Protocol: Compounds were synthesized and tested for S1P1 activity using the GTP γ^35S binding assay. These compounds may be assessed for their ability to activate or block activation of the human S1P1 receptor in cells stably expressing the S1P1 receptor.
GTP γ^35S binding was measured in the medium containing (mM) HEPES 25, pH 7.4, MgCl2 10, NaCl 100, dithitothreitol 0.5, digitonin 0.003%, 0.2 nM GTP γ^35S, and 5 μg membrane protein in a volume of 150 μl. Test compounds were included in the concentration range from 0.08 to 5,000 nM unless indicated otherwise. Membranes were incubated with 100 μM 5′-adenylylimmidodiphosphate for 30 min, and subsequently with 10 μM GDP for 10 min on ice. Drug solutions and membrane were mixed, and then reactions were initiated by adding GTP γ^35S and continued for 30 min at 25° C. Reaction mixtures were filtered over Whatman GF/B filters under vacuum, and washed three times with 3 mL of ice-cold buffer (HEPES 25, pH7.4, MgCl2 10 and NaCl 100). Filters were dried and mixed with scintillant, and counted for ^35S activity using a β-counter. Agonist-induced GTP γ^35S binding was obtained by subtracting that in the absence of agonist. Binding data were analyzed using a non-linear regression method. In case of antagonist assay, the reaction mixture contained 10 nM S1P in the presence of test antagonist at concentrations ranging from 0.08 to 5000 nM.

T1 sequence (P21453 whole entry): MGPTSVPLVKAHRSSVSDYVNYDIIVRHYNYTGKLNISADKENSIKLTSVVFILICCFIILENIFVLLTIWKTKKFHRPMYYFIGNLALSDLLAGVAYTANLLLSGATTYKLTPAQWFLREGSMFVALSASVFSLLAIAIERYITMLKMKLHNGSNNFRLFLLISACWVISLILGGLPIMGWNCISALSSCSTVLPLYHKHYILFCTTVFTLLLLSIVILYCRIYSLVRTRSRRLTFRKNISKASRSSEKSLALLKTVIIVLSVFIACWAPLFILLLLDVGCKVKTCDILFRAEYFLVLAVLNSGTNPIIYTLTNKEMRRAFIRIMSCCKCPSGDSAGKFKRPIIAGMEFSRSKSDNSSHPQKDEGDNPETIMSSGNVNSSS

Compound | pEC50
C/C(=N\OCC(Oc1ccc(C)c(C)c1)c1cccc(Cl)c1)c1ccc(CNCCC(=O)O)cc1 (stereo not shown) [Compound 14, 3-[(4-{(1E)-N-[2-(3-chlorophenyl)-2-(3,4-dimethylphenoxy)ethoxy]ethanimidoyl}benzyl)amino]propanoic acid] | 6.67
C/C(=N\OCC(Cc1ccc(C)c(C)c1)c1cccc(Cl)c1)c1ccc(CNCCC(=O)O)cc1 (stereo not shown) [Compound 3, 3-[(4-{(1E)-N-[2-(3-chlorophenyl)-3-(3,4-dimethylphenyl)propoxy]ethanimidoyl}benzyl)amino]propanoic acid] | 7.81
C/C(=N\OCc1ccc(CNCCCP(=O)(O)O)cc1)C(Cc1ccc(C)c(C)c1)c1cccc(Cl)c1 (stereo not shown) [Compound 5, [3-({4-[({[(1E)-2-(3-chlorophenyl)-3-(3,4-dimethylphenyl)-1-methylpropylidene]amino}oxy)methyl]benzyl}amino)propyl]phosphonic acid] | 8.66
C/C(=N\OCC(Oc1ccc(C)c(C)c1)c1cccc(Cl)c1)c1ccc(CNCCCP(=O)(O)O)cc1 (stereo not shown) [Compound 15, {3-[(4-{(1E)-N-[2-(3-chlorophenyl)-2-(3,4-dimethylphenoxy)ethoxy]ethanimidoyl}benzyl)amino]propyl}phosphonic acid] | 7.94
C/C(=N\OCc1ccc(CNCCC(=O)O)cc1)C(Cc1ccc(C)c(C)c1)c1cc(F)cc(F)c1 (stereo not shown) [Compound 7, 3-({4-[({[(1E)-2-(3,5-difluorophenyl)-3-(3,4-dimethylphenyl)-1-methylpropylidene]amino}oxy)methyl]benzyl}amino)propanoic acid] | 8.17
C/C(=N\OCC(Cc1ccc(C)c(C)c1)c1cccc(Cl)c1)c1ccc(CNCCCP(=O)(O)O)cc1 (stereo not shown) [Compound 4, {3-[(4-{(1E)-N-[2-(3-chlorophenyl)-3-(3,4-dimethylphenyl)propoxy]ethanimidoyl}benzyl)amino]propyl}phosphonic acid] | 8.45
C/C(=N\OCc1ccc(CNCCCP(=O)(O)O)cc1)C(Sc1ccc(C)c(C)c1)c1cccc(Cl)c1 (stereo not shown) [Compound 10, {3-[(4-{[({(1E)-2-(3-chlorophenyl)-2-[(3,4-dimethylphenyl)thio]-1-methylethylidene}amino)oxy]methyl}benzyl)amino]propyl}phosphonic acid] | 8.08
C/C(=N\OCC(Cc1ccc(C)c(C)c1)c1cccc(C)c1)c1ccc(CNCCCP(=O)(O)O)cc1 (stereo not shown) [Compound 2, {3-[(4-{(1E)-N-[3-(3,4-dimethylphenyl)-2-(3-methylphenyl)propoxy]ethanimidoyl}benzyl)amino]propyl}phosphonic acid] | 7.63
C/C(=N\OCC(Cc1ccc(C)c(C)c1)c1cccc(C)c1)c1ccc(CNCCC(=O)O)cc1 (stereo not shown) [Compound 1, 3-[(4-{(1E)-N-[3-(3,4-dimethylphenyl)-2-(3-methylphenyl)propoxy]ethanimidoyl}benzyl)amino]propanoic acid] | 7.36
C/C(=N\OCc1ccc(CNCCCP(=O)(O)O)cc1)C(Cc1ccc(C)c(C)c1)c1cc(F)cc(F)c1 (stereo not shown) [Compound 6, [3-({4-[({[(1E)-2-(3,5-difluorophenyl)-3-(3,4-dimethylphenyl)-1-methylpropylidene]amino}oxy)methyl]benzyl}amino)propyl]phosphonic acid] | 9.06
